Values after ≈ are worked out from the molar mass of the structure shown.
Tests used:
Aspergillus flavus = experiment: Antifungal activity against Aspergillus flavus assessed as inhibition of fungal growth; type: functional
Pseudomonas aeruginosa [1] = experiment: Antimicrobial activity against Pseudomonas aeruginosa ATCC 27853 assessed as inhibition of microbial growth incubated for 24 hrs by broth microdilution method; type: functional
[2] = tested on: Staphylococcus epidermidis; experiment: Antibacterial activity against Staphylococcus epidermidis ATCC 12228 assessed as bacterial growth inhibition incubated for 24 hrs by broth dilution method; type: functional
Staphylococcus aureus [3] = experiment: Antibacterial activity against Staphylococcus aureus ATCC 29213 assessed as bacterial growth inhibition incubated for 24 hrs by broth dilution method; type: functional
Escherichia coli [4] = experiment: Antibacterial activity against Escherichia coli ATCC 25922 assessed as bacterial growth inhibition incubated for 24 hrs by broth dilution method; type: functional
[5] = tested on: Staphylococcus epidermidis; experiment: Antibacterial activity against Staphylococcus epidermidis ATCC 12228 assessed as reduction in microbial growth by incubated for 18 hrs CLSI based broth microdilution method; type: functional
Escherichia coli [6] = experiment: Antimicrobial activity against Escherichia coli NCTC 8196 assessed as reduction in microbial growth measured fro 18 hrs by two-fold serial dilution method; type: functional
Escherichia coli [7] = experiment: Antibacterial activity against Escherichia coli ATCC 25922 assessed as reduction in microbial growth by incubated for 18 hrs CLSI based broth microdilution method; type: functional
Pichia kudriavzevii = experiment: Antifungal activity against Candida krusei ATCC 6258 assessed as inhibition of fungal growth incubated for 24 hrs by microtiter plate reader assay; type: functional
[8] = target: Type-1 angiotensin II receptor (Homo sapiens) (UniProt P30556); experiment: Inhibition of Angiotensin-2 receptor (unknown origin)
Type-1 angiotensin II receptor (Homo sapiens), sequence (P30556 whole entry, looked up): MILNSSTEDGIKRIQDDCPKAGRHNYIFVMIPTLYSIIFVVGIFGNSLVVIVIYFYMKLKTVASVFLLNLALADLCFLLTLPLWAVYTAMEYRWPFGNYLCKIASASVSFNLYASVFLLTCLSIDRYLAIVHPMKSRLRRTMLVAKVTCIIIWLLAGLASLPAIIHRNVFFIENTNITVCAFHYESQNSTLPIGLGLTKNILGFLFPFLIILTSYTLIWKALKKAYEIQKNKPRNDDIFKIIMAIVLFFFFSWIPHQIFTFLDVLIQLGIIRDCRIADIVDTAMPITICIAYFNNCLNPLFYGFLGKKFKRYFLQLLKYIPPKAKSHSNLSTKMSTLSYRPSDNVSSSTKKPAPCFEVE

[9] = Antioxidant activity assessed as DPPH radical scavenging activity after 30 mins by spectrophotometric analysis; type: functional
HepG2 = experiment: Cytotoxicity against human HepG2 cells assessed as reduction in cell viability incubated for 24 hrs by MTT assay; type: functional, cell-based; conditions: HepG2, 24 h
MCF7 [10] = experiment: Cytotoxicity against human MCF7 cells assessed as reduction in cell viability incubated for 24 hrs by MTT assay; type: functional, cell-based; conditions: MCF7, 24 h
Staphylococcus aureus [11] = experiment: Antibacterial activity against Staphylococcus aureus MTCC-739 assessed as bacterial growth inhibition after 24 hrs by broth macro dilution method; type: functional
Escherichia coli [12] = experiment: Antibacterial activity against Escherichia coli assessed as bacterial growth inhibition after 24 hrs by broth macro dilution method; type: functional
Micrococcus luteus = experiment: Antibacterial activity against Micrococcus luteus assessed as bacterial growth inhibition after 24 hrs by broth macro dilution method; type: functional
Staphylococcus aureus [13] = experiment: Antibacterial activity against Staphylococcus aureus MTCC-96 assessed as bacterial growth inhibition after 24 hrs by broth macro dilution method; type: functional
Pseudomonas aeruginosa [14] = experiment: Antibacterial activity against Pseudomonas aeruginosa assessed as bacterial growth inhibition after 24 hrs by broth macro dilution method; type: functional
Nannizzia gypsea = experiment: Antifungal activity against Microsporum gypseum assessed as reduction in fungal growth; type: functional
[15] = Antagonist activity at NMDA receptor (unknown origin); design: species or system Homo sapiens
Cholinesterase = Cholinesterase (Homo sapiens, UniProt P06276); experiment: Inhibition of BChE (unknown origin) using acetylthiocholine iodide as substrate preincubated for 20 mins followed by substrate addition and measured after 5 mins by Ellman's method
Cholinesterase, sequence (P06276 whole entry): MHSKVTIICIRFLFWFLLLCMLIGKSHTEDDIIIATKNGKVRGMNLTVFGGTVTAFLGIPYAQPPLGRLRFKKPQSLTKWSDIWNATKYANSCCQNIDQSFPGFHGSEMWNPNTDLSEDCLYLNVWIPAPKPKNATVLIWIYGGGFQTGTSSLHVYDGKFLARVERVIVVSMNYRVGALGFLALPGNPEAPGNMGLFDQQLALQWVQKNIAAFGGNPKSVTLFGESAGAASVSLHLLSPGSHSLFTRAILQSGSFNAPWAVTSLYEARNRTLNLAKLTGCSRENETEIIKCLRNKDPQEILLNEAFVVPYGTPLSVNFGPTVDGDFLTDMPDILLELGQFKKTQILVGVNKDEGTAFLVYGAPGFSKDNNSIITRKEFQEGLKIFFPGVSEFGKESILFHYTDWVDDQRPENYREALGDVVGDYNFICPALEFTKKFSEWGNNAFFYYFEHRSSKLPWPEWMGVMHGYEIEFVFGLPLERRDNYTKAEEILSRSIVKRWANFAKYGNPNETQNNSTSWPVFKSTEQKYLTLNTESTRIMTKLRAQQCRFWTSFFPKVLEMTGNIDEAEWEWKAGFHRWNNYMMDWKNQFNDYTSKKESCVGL

HUVEC = experiment: Antiproliferative activity against HUVEC cells assessed as inhibition of cell proliferation incubated for 72 hrs by Cell Titer Luminescence assay; type: functional, cell-based; conditions: Homo sapiens
CCRF-CEM = experiment: Cytotoxicity against human CCRF-CEM cells assessed as reduction in cell growth at 25 uM incubated for 48 hrs by MTT assay relative to control; type: functional; design: scale not given: the % may be the effect or the level left
MCF7 [16] = experiment: Cytotoxicity against human MCF7 cells assessed as reduction in cell growth at 25 uM incubated for 48 hrs by MTT assay relative to control; type: functional; design: scale not given: the % may be the effect or the level left
PC-3 [17] = experiment: Cytotoxicity against human PC-3 cells assessed as reduction in cell growth incubated for 24 hrs by MTT assay; type: functional, cell-based; conditions: PC-3, 24 h
[18] = target: T1, Tyrosine-protein phosphatase non-receptor type 1 (Homo sapiens, UniProt P18031); experiment: Inhibition of PTP1B (unknown origin)
T1 sequence (P18031 whole entry): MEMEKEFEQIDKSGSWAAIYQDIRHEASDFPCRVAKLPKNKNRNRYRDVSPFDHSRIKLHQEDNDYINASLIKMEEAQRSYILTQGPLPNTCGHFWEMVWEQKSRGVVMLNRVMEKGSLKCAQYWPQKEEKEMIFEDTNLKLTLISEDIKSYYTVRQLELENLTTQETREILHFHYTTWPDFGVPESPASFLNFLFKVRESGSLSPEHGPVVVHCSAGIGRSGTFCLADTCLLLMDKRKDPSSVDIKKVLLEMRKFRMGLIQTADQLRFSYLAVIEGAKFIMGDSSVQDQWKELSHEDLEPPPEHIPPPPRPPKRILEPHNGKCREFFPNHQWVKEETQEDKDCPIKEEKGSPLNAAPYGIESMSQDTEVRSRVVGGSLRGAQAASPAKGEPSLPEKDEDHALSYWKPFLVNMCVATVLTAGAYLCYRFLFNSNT

PC-3 [19] = experiment: Antiproliferative activity against human PC-3 cells assessed as inhibition of cell growth measured after 24 hrs by MTT assay; type: functional, cell-based; conditions: PC-3, 24 h
DU-145 = experiment: Antiproliferative activity against human DU-145 cells assessed as inhibition of cell growth measured after 24 hrs by MTT assay; type: functional, cell-based; conditions: DU-145, 24 h
[20] = Antiproliferative activity against human RWPE-1 cells assessed as inhibition of cell growth measured after 24 hrs by MTT assay; type: toxicity, cell-based
Staphylococcus aureus [21] = experiment: Antibacterial activity against Staphylococcus aureus assessed as reduction in microbial growth by CLSI based broth microdilution method; type: functional

COc1ccc(-n2nnnc2SCc2cn(-c3ccc4c(cnn4C)c3)nn2)cc1
MIC (Aspergillus flavus): 10 µg/mL (≈ 23.8 µM)

CC1=C(C)C2(C)CC1(C)C1C(=O)N(Nc3nnnn3-c3ccccc3Cl)C(=O)C12 (stereo not drawn)
MIC (Pseudomonas aeruginosa [1]): 0.4 µg/mL
MIC [2]: 0.4 µg/mL (≈ 0.969 µM)
MIC (Staphylococcus aureus [3]): 0.4 µg/mL (≈ 0.969 µM)
MIC (Escherichia coli [4]): 0.4 µg/mL (≈ 0.969 µM)

Cc1ccc(-n2nnnc2NCc2ccco2)cc1Cl
MIC [5]: 2 µg/mL
MIC (Escherichia coli [6]): 2 µg/mL
MIC (Escherichia coli [7]): 2 µg/mL

OC(Cn1cncn1)(Cn1cncn1)c1ccc(F)cc1F [FLUCONAZOLE]
MIC (Pichia kudriavzevii): 7.8 µg/mL (≈ 25.5 µM)

O=P(O)(O)CN[C@@H](Cc1ccc2oc3ccccc3c2c1)c1nnn[nH]1
IC50 [8]: 0.006 µM

Cc1cn(C2OC(CO)CC2n2nnnc2Cc2c[nH]c3ccccc23)c(=O)[nH]c1=O (stereo not drawn)
IC50 [9]: 25.87 µg/mL (≈ 61.1 µM)

Clc1ccc(-c2nn[se]c2-n2nnc(-c3ccccc3)n2)cc1
IC50 (HepG2): 43.2 µM
IC50 (MCF7 [10]): 43.2 µM

O=S(=O)(c1ccccc1)n1nnc(CCSc2cc3ccccc3[nH]2)n1
IC50 [9]: 27.63 µg/mL (≈ 71.7 µM)

Cn1ncc2cc(-n3cc(CSc4nnnn4-c4cccc(F)c4)nn3)ccc21
MIC (Staphylococcus aureus [11]): 5 µg/mL (≈ 12.3 µM)
MIC (Escherichia coli [12]): 5 µg/mL (≈ 12.3 µM)
MIC (Micrococcus luteus): 5 µg/mL (≈ 12.3 µM)
MIC (Staphylococcus aureus [13]): 5 µg/mL (≈ 12.3 µM)
MIC (Pseudomonas aeruginosa [14]): 5 µg/mL (≈ 12.3 µM)

Cn1ncc2cc(-n3cc(CSc4nnnn4-c4cccc([N+](=O)[O-])c4)nn3)ccc21
MIC (Staphylococcus aureus [11]): 5 µg/mL (≈ 11.5 µM)
MIC (Escherichia coli [12]): 5 µg/mL (≈ 11.5 µM)
MIC (Micrococcus luteus): 5 µg/mL (≈ 11.5 µM)
MIC (Nannizzia gypsea): 11 µg/mL (≈ 25.3 µM)
MIC (Staphylococcus aureus [13]): 5 µg/mL (≈ 11.5 µM)
MIC (Pseudomonas aeruginosa [14]): 5 µg/mL (≈ 11.5 µM)

COc1ccc(-c2nnc(C[Se]c3nnn[nH]3)o2)cc1
IC50 [9]: 27.63 µg/mL (≈ 81.9 µM)

O=C(O)[C@H]1C[C@@H](Cc2nnn[nH]2)CCN1 (single isomer, unassigned)
IC50 [15]: 0.1 µM

COc1ccccc1C1=C(C#N)/C(=C(/C)c2nnn[nH]2)NC(C)(c2ccccc2OC)C1 (stereo not drawn)
IC50 (Cholinesterase): 0.29 µM

Clc1ccc(-c2nn[se]c2-n2nnc(-c3ccccc3Cl)n2)cc1
IC50 (HepG2): 43.2 µM
IC50 (MCF7 [10]): 43.2 µM

C1=C(c2nnn(Cc3cn(Cc4ccccc4)nn3)n2)COc2ccccc21
IC50 [9]: 27.63 µg/mL (≈ 74.4 µM)

CC1=C(C)C2(C)CC1(C)C1C(=O)N(Nc3nnnn3-c3cccc(C(F)(F)F)c3)C(=O)C12 (stereo not drawn)
MIC (Pseudomonas aeruginosa [1]): 0.4 µg/mL
MIC [2]: 0.4 µg/mL (≈ 0.896 µM)
MIC (Staphylococcus aureus [3]): 0.4 µg/mL (≈ 0.896 µM)
MIC (Escherichia coli [4]): 0.4 µg/mL (≈ 0.896 µM)

CO/N=C1\CN(c2nc3c(cc2F)c(=O)c(C(=O)O)cn3C2CC2)CC1CN (stereo not drawn) [GEMIFLOXACIN]
MIC (Escherichia coli [12]): 10 µg/mL (≈ 25.7 µM)
MIC (Pseudomonas aeruginosa [14]): 10 µg/mL (≈ 25.7 µM)

CCC(C)n1ncn(-c2ccc(N3CCN(c4ccc(OC[C@@H]5CO[C@@](Cn6ncnn6)(c6ccc(Cl)cc6Cl)O5)cc4)CC3)cc2)c1=O (stereo partly drawn)
IC50 (HUVEC): 0.073 µM

CCC(C)n1ncn(-c2ccc(N3CCN(c4ccc(OCC5COC(Cn6cncn6)(c6ccc(Cl)cc6Cl)O5)cc4)CC3)cc2)c1=O (stereo not drawn) [ITRACONAZOLE]
MIC (Aspergillus flavus): 8 µg/mL (≈ 11.3 µM)
MIC (Nannizzia gypsea): 10 µg/mL (≈ 14.2 µM)

Clc1ccccc1-c1nnnn1CCCn1cnc2c(Br)c(Br)c(Br)c(Br)c21
Activity (CCRF-CEM): <1%
Activity (MCF7 [16]): <1%

Clc1ncccc1-c1nnn[nH]1
IC50 [9]: 27.63 µg/mL (≈ 152 µM)

Cn1ncc2cc(-n3cc(CSc4nnnn4-c4ccc(F)cc4F)nn3)ccc21
MIC (Staphylococcus aureus [11]): 5 µg/mL (≈ 11.8 µM)
MIC (Escherichia coli [12]): 5 µg/mL (≈ 11.8 µM)
MIC (Micrococcus luteus): 5 µg/mL (≈ 11.8 µM)
MIC (Staphylococcus aureus [13]): 5 µg/mL (≈ 11.8 µM)
MIC (Pseudomonas aeruginosa [14]): 5 µg/mL (≈ 11.8 µM)

Clc1ccc(-c2nnn(-c3[se]nnc3-c3ccc(Cl)cc3)n2)cc1
IC50 (HepG2): 43.2 µM
IC50 (MCF7 [10]): 43.2 µM

COc1cccc2c1C(=O)c1c(O)c3c(c(O)c1C2=O)C[C@@](O)(C(=O)CO)C[C@@H]3O[C@H]1C[C@H](N)[C@H](O)[C@H](C)O1 [DOXORUBICIN]
IC50 (PC-3 [17]): 2.24 µM

Brc1c(Br)c(Br)c2c(ncn2CCCn2nnnc2-c2ccccc2)c1Br
Activity (CCRF-CEM): <1%
Activity (MCF7 [16]): <1%

Cc1cn(C2OC(CO)CC2n2nnnc2-c2cccnc2Cl)c(=O)[nH]c1=O (stereo not drawn)
IC50 [9]: 25.87 µg/mL (≈ 63.8 µM)

OC1C2CC3CC1CC(C2)C3(Cc1nnn[nH]1)c1ccc(-c2ccc(F)cc2)cc1 (stereo not drawn)
IC50 [18]: 0.0037 µM

Cn1nnnc1SCC(=O)N1CCN(C2CCCCC2)CC1
MIC (Pichia kudriavzevii): 3.9 µg/mL (≈ 12 µM)

O=P(O)(O)CN[C@@H](Cc1ccc(-c2ccccc2)cc1)c1nnn[nH]1
IC50 [8]: 0.0009 µM

Fc1ccc(-n2nnnc2NCc2ccco2)cc1Cl
MIC [5]: 2 µg/mL
MIC (Escherichia coli [6]): 2 µg/mL
MIC (Escherichia coli [7]): 2 µg/mL

O=C1N(Cc2ccc(Br)cc2)c2ccccc2C1(O)Cc1nnn[nH]1 (stereo not drawn)
IC50 (PC-3 [19]): 10.1 µM
IC50 (DU-145): 11.7 µM
IC50 at 24 h [20]: 76 µM

Cn1ncc2cc(-n3cc(CSc4nnnn4-c4cccc(O)c4)nn3)ccc21
MIC (Staphylococcus aureus [11]): 5 µg/mL (≈ 12.3 µM)
MIC (Escherichia coli [12]): 5 µg/mL (≈ 12.3 µM)
MIC (Micrococcus luteus): 5 µg/mL (≈ 12.3 µM)
MIC (Staphylococcus aureus [13]): 5 µg/mL (≈ 12.3 µM)
MIC (Pseudomonas aeruginosa [14]): 5 µg/mL (≈ 12.3 µM)

C[C@@H](c1ncncc1F)[C@](O)(Cn1cncn1)c1ccc(F)cc1F [VORICONAZOLE]
MIC (Pichia kudriavzevii): 3.9 µg/mL (≈ 11.2 µM)

CC1=C(C)C2(C)CC1(C)C1C(=O)N(Nc3nnnn3-c3ccccc3Br)C(=O)C12 (stereo not drawn)
MIC (Pseudomonas aeruginosa [1]): 0.4 µg/mL
MIC [2]: 0.4 µg/mL (≈ 0.875 µM)
MIC (Staphylococcus aureus [21]): 0.1 µg/mL
MIC (Staphylococcus aureus [3]): 0.4 µg/mL (≈ 0.875 µM)
MIC (Escherichia coli [4]): 0.4 µg/mL (≈ 0.875 µM)

O=C(O)Cn1nnc(-c2cn(-c3ccccc3)nc2-c2ccc(Cl)cc2)n1
IC50 (PC-3 [17]): 6.43 µM

Fc1ccccc1-n1nnnc1NCc1ccco1
MIC [5]: 2 µg/mL
MIC (Escherichia coli [6]): 2 µg/mL
MIC (Escherichia coli [7]): 2 µg/mL
